This is an account of results in patent US20090075867A1, “Triazine compounds and compositions thereof for the treatment of cancers” (priority 2005, published 2009).

Where two headings read alike, the source gives them in different places.

Test [1] relates to PC-3, human prostate carcinoma cell. In words: In vitro cytotoxicity (MTT) on PC-3. In kind it is cell-based. The protocol:
(§1) This assay was performed to determine the effect of compounds of the present invention on cell cytotoxicity. Cells were incubated in presence or absence of compounds in their respective conditioned media. […] The supernatant was discarded and 100 μl of dimethylsulfoxide (DMSO) was added. Absorbance was read at […] with an ELISA Tecan SUNRISE™ plate reader. The control group consisted of cells without compounds and is referred to as 100% of viable cells. IC50 was determined using PRISM® software.
(§2) The predictive utility of cell-based cytotoxicity assays to assess the potential in vivo anticancer activity of compounds with selected cancer cell lines is well established in the art and the use of whole cells, instead of isolated protein receptors or enzymes, provides a more reliable determination of activity. See, for example, Paull et al. J. Natl. Cancer Inst. 81:1088-1092 (1989); Monks et al. J. Natl. Cancer Inst. 83:757-766 (1991); Bandes et al. J. Natl. Cancer Inst. 86:770-775 (1994); and Kamate et al. Intl. J. Cancer 100:571-579 (2002).

Test [2] has as its system PBML, Peripheral Blood Mononuclear Leukocytes. In words: In vitro cytotoxicity (MTT) on PBML. The format is cell-based. The following applies: Leukocyte. The protocol:
as §1, §2

Test [3] has as its system B16F10, murine melanoma cell. In words: In vitro cytotoxicity (MTT) on B16F10. In kind it is cell-based. The following applies: Mus musculus, B16-F10. The protocol: as §1, §2
Another test has as its system B16F10 lung metastases. The format is in vivo. The following applies: for inhibition of the number of tumor nodules in lungs: FIG. 3, 50 mg/kg i.v. on day -3, -2, -1, 3, 5 and 7, p<0.001; for reduction of the number of tumor nodules: FIG. 4. The protocol: Female 6-8-week old C57BL/6 mice were injected intravenously on day 0 with 1-2.5×10^5 B16F10 melanoma cells from ATCC (source of cell culture, Dr. I. J. Fidler). B16F10 melanoma cells are a highly metastatic cell line which preferentially forms nodules in the lungs. Cells were cultured in DMEM supplemented with 10% fetal bovine serum. […] Fourteen days after inoculation, mice were sacrificed and their lungs were removed, rinsed in PBS, and placed in Bouin's fixative. The number of metastatic nodules (black colonies) on the surface of the lungs were counted.

Test [4] deals with P815, murine mastocytoma cell. As to the kind of experiment: In vitro cytotoxicity (MTT) on P815. The format is cell-based. Particulars: Mus musculus. The protocol: as §1, §2
In test [5] the test system is NHDF, Normal Human Dermal Fibroblast. In words: In vitro cytotoxicity (MTT) on NHDF. In kind it is cell-based. The protocol:
as §1, §2

The subject of another test is B16F10 primary tumors. In words: Antitumor effects on a primary B16F10 melanoma tumor. The following applies: 50 mg/kg i.v. on day 14, 16 and 18. The format is in vivo, C57BL/6 mice. The protocol:
Female 6-8 week old C57BL/6 mice were injected intradermally on day 0 with 3.75×10^4 B16F10 melanoma cells from ATCC (source of cell culture, Dr. I. J. Fidler). On day 14, tumors reached […] and animals were randomized for treatments. Animals were then injected i.v. with saline (negative control) or compounds (50 mg/kg) on day 14, 16 and 18 or 10 mg/kg doxorubicin (Dox, positive control) on day 14. Mice were sacrificed on day 29. Body weight and tumor volume were recorded. Serial tumor volume was obtained by bi-dimensional diameter measurements with calipers, using the formula 0.4 (a×b^2) where “a” was the major tumor diameter and “b” the minor perpendicular diameter.
T/C is calculated as (Treated tumor volume/Control tumor volume)×100%. Compound 2 induced a weak reduction (T/C around 70%) of the tumor volume compared to the control.

The test system of a further test is DA-3. As to the kind of experiment: In vitro cytotoxicity (MTT) on DA-3. In kind it is cell-based, BALB/c mice. The following applies: Mus musculus. The protocol:
as §1, §2
(§3) The syngeneic tumor DMBA3 (DA-3, breast carcinoma model) arose from a preneoplastic lesion treated with 7,12-dimethylbenzanthracene in female BALB/c mice. DA-3 cells were grown as monolayer cultures in plastic flasks in RPMI-1640 containing 0.1 mM nonessential amino acids, 0.1 μM sodium pyruvate, 2 mM L-glutamine. This was further supplemented with 50 μM 2-mercaptoethanol and 10% fetal bovine serum. The DA-3 tumors were serially passage in vivo by intradermal inoculation of 5×10^5 viable tumor cells to produce localized tumors in 6- to 8-week old BALB/c mice. The animals were then serially monitored by manual palpation for evidence of tumor. Mice were treated at day 11, 18 and 25 with cyclophosphamide (100 mg/kg) and at day 11, 12, 13, 15, 18, 20, 22, 25, 27 and 29 with compound 1, 2, 3 or 8 (50 mg/kg). Mice were sacrificed at day 43. Serial tumor volume was obtained by bi-dimensional diameter measurements with calipers, using the formula 0.4 (a×b^2) where “a” was the major tumor diameter and “b” the minor perpendicular diameter. […] The National Cancer Institute (USA) defines the product as effective if T/C is ≦40%.

The subject of the next test is DA-3 breast tumors. As to the kind of experiment: Antitumor effects on a primary DA-3 breast tumor. The format is in vivo, BALB/c mice. The protocol:
as §3
In other trials, mice were treated with one intratumoral injection of compound 2 or cyclophosphamide (three doses) or intratumoral injection of compound 2 in combination with cyclophosphamide.

The test system of a further test is Hep-G2, human liver cell. As to the kind of experiment: In vitro cytotoxicity (MTT) on Hep-G2. In kind it is cell-based. The protocol:
as §1, §2

In test [6] the test system is CAKI-2, human kidney cell. As to the kind of experiment: In vitro cytotoxicity (MTT) on CAKI-2. In kind it is cell-based. The protocol:
as §1, §2

[7] abbreviates: FIG. 8, combination of cyclophosphamide and intratumoral injection of compound 2.

Regarding `Nc1ccc(CCNc2nc(NCCCCO)nc(Nc3cccc(N)c3)n2)cc1` [Compound 8], the IC50 (commonly the concentration needed to halve the response being measured) in test [1] (24-hour cell culture) was 94 µM; in [1] (72-hour cell culture), 100 µM; in test [2] (24-hour cell culture) it was above 100 µM; in test [2] (72-hour cell culture), above 100 µM; in test [3] (24-hour cell culture) it was 33 µM; in test [4] (24-hour cell culture), above 100 µM. Moreover, the half-inhibitory concentration (IC50) in test [4] (72-hour cell culture) is 92 µM; in [5] (24-hour cell culture) it was above 100 µM; in test [5] (72-hour cell culture), above 100 µM; with DA-3 (24-hour cell culture), 85 µM. In addition, the “inhibition of the number of tumor nodules in lungs” value (“inhibition of the number … in lungs” for short) in the test with B16F10 lung metastases is listed as “significant inhibition”. Further, the “T/C (Treated tumor volume/Control tumor volume)” value with B16F10 primary tumors (FIG. 2 trial) was “around 70%”. Moreover, in the test on DA-3 breast tumors (FIG. 6, 50 mg/kg), the “inhibition of the tumor volume” value was “All compounds except compound 8 induced a significant inhibition”.

Regarding `Oc1ccc(CCNc2nc(NCCNc3nc(NCCc4ccc(O)cc4)nc(Nc4ccccc4)n3)nc(Nc3ccccc3)n2)cc1` [Compound 1], the IC50 was determined as 8.3 µM in test [1] (24-hour cell culture); 8.3 µM in [1] (72-hour cell culture); 19 µM in the test on Hep-G2, human liver cell (HepG2, 24-hour cell culture); 23 µM in the test on Hep-G2, human liver cell (HepG2, 72-hour cell culture); 98 µM in [2] (24-hour cell culture); 45 µM in test [2] (72-hour cell culture). For the same compound, the concentration for half-maximal inhibition (IC50) in test [3] (24-hour cell culture) is 6 µM; in [3] (72-hour cell culture), 6 µM; in test [6] (24-hour cell culture), above 40 µM; in test [6] (72-hour cell culture) it was 15 µM; in test [4] (24-hour cell culture), 34 µM; in test [4] (72-hour cell culture) it was 34 µM. Further, the IC50 is above 100 µM in test [5] (24-hour cell culture), 16 µM in test [5] (72-hour cell culture), 4 µM with DA-3 (24-hour cell culture) and 4.2 µM in the test with DA-3 (72-hour cell culture). Further, the “inhibition of the number … in lungs” value in the test on B16F10 lung metastases is recorded as “significant inhibition”.

In the case of `Nc1ccc(CCNc2nc(Nc3ccc(CCNc4nc(NCCO)nc(Nc5cccc(N)c5)n4)cc3)nc(Nc3cccc(N)c3)n2)cc1` [Compound 2], the IC50 in [1] (24-hour cell culture) was 2.3 µM; in test [1] (72-hour cell culture) it was 4 µM; in the test on Hep-G2, human liver cell (HepG2, 24-hour cell culture), above 40 µM; in the test on Hep-G2, human liver cell (HepG2, 72-hour cell culture), above 40 µM; in [2] (24-hour cell culture) it was above 100 µM; in test [2] (72-hour cell culture), 10 µM. The IC50 is 1 µM in test [3] (24-hour cell culture); 1 µM in test [3] (72-hour cell culture); above 40 µM in test [6] (24-hour cell culture); above 40 µM in test [6] (72-hour cell culture); 66.5 µM in [4] (24-hour cell culture); 2.2 µM in test [4] (72-hour cell culture). For the same compound, the IC50 is above 100 µM in [5] (24-hour cell culture), 16 µM in test [5] (72-hour cell culture), 2 µM with DA-3 (24-hour cell culture) and 1.9 µM in the test with DA-3 (72-hour cell culture). Besides, the “inhibition of the number … in lungs” value with B16F10 lung metastases was “significant inhibition”. Moreover, the “reduction of the number of tumor nodules” value with B16F10 lung metastases (compound 2 in combination with doxorubicin (1 mg/kg)) came out at 95%; in the test on B16F10 lung metastases (used alone, compound 50 mg/kg i.v., doxorubicin 1 mg/kg), 87%. Further, in the test on B16F10 primary tumors (FIG. 1 trial), the “T/C (Treated tumor volume/Control tumor volume)” value is reported as “around 70%”. Besides, the “T/C, inhibition of tumor volume” value in the test with DA-3 breast tumors (setting [7]) stood at 10%. Further, the “total tumor regressions at day 46” value in the test with DA-3 breast tumors (setting [7]) is listed as “four”. The “total tumor regression at day 46” value in the test with DA-3 breast tumors (FIG. 8, one intratumoral injection of compound 2 alone) is reported as “one”.
